Values of other authors in EP3155636B1, “A PROBE FOR EXTRACTION OF MOLECULES OF INTEREST FROM A SAMPLE” (JP Scientific Limited, priority 2014, dated 2015).

conditions: listed with the MS/MS parameters of 21 WADA controlled substances; source and method not stated

Structure (SMILES) | Log P
CC(C)NCC(O)COc1ccc(COCCOC(C)C)cc1 (stereo not drawn) [Bisoprolol] | 2.14
C=C1C[C@@H]2[C@H](CC[C@]3(C)C(=O)CC[C@@H]23)[C@@]2(C)C=CC(=O)C=C12 [Exemestane] | 3.70
Cc1cc(SCc2sc(-c3ccc(C(F)(F)F)cc3)nc2C)ccc1OCC(=O)O [GW501516] | 6.29
CCN(CC)C(=O)c1cccnc1 [Nikethamide] | 0.33
CC(C)(C)NCC(O)c1ccc(O)c(CO)c1 (stereo not drawn) [Salbutamol] | 0.64
CN(C)CCOc1ccc(/C(=C(/CCCl)c2ccccc2)c2ccccc2)cc1 [Toremifene] | 6.80
